Experimental findings from patent US12344610B2, “APOL1 inhibitors and methods of use” (Maze Therapeutics, Inc., priority 2022, dated 2025) are described below.

The structures appear in SMILES notation.

For orientation: EC50 means the midpoint of the concentration-response curve. Lower therefore signals an effect from little substance.

For the first assay, the system named is human immortalized podocytes inducibly expressing APOL1 G2. As to the kind of experiment: APOL1 G2 podocyte cell rescue assay (Example B4). It is filed as cell-based. The note with it: Homo sapiens, differentiated human podocytes, doxycycline-induced APOL1 G2, CellTiter-Glo; geometric mean of at least 2 runs; † = single run. The method, boiled down:
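Differentiated hTERT-immortalized podocytes (clone D10) with doxycycline-inducible C-terminally HiBiT-tagged APOL1 G2, 6,000 cells/well, treated with doxycycline plus 8-point 3-fold compound series (0.4% DMSO) for 95 h at 37 °C. Viability by CellTiter-Glo luminescence; EC50 as geometric mean of ≥2 runs, each in duplicate.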
For orientation: In ATP-based viability assays light output follows the ATP content of the culture.
Compound `CS(=O)(=O)C1(c2ncc(OCCN3CCC4(CC3)C(=O)Nc3ccc(C(F)F)cc34)cn2)CC1` [Compound 5, 5-(difluoromethyl)-1′-(2-{[2-(1-methanesulfonylcyclopropyl)pyrimidin-5-yl]oxy}ethyl)-1,2-dihydrospiro[indole-3,4′-piperidin]-2-one] registered an EC50 greater than 330 nM.
On to `CS(=O)(=O)C1(c2ncc(OCCN3CCC4(CC3)C(=O)Nc3ccc(OC(F)F)cc34)cn2)CC1` [Compound 6, 5-(difluoromethoxy)-1′-(2-{[2-(1-methanesulfonylcyclopropyl)pyrimidin-5-yl]oxy}ethyl)-1,2-dihydrospiro[indole-3,4′-piperidin]-2-one], for which the EC50 turned out to be 47.7 nM.
Same read-out and setting: the figure for `O=C1CCc2cc(OCCN3CCC4(CC3)C(=O)Nc3ccc(Cl)cc34)cnc2N1[C@H]1C[C@H](O)C1` [Compound 267, 5-chloro-1′-[2-({7-oxo-8-[(trans)-3-hydroxycyclobutyl]-5,6,7,8-tetrahydro-1,8-naphthyridin-3-yl}oxy)ethyl]-1,2-dihydrospiro[indole-3,4′-piperidin]-2-one] is 6.63 nM; for `C[C@]1(O)C[C@@H](n2c(=O)cnc3cc(OCCN4CCC5(CC4)C(=O)Nc4ccc(Cl)cc45)cnc32)C1` [Compound 358, 5-chloro-1′-[2-({3-oxo-4-[(cis)-3-hydroxy-3-methylcyclobutyl]-3H,4H-pyrido[2,3-b]pyrazin-7-yl}oxy)ethyl]-1,2-dihydrospiro[indole-3,4′-piperidin]-2-one] it is 24 nM.
For the compound `CC1(O)CN(c2ncc(OCCN3CCC4(CC3)C(=O)Nc3ccc(C(F)F)cc34)cn2)C1` [Compound 395, 5-(difluoromethyl)-1′-(2-{[2-(3-hydroxy-3-methylazetidin-1-yl)pyrimidin-5-yl]oxy}ethyl)-1,2-dihydrospiro[indole-3,4′-piperidin]-2-one], the EC50 came to 137 nM.

The assay is the same for the next values; noted with them: differentiated human podocytes, doxycycline-induced APOL1 G2, CellTiter-Glo; geometric mean of at least 2 runs; † = single run.
On to `CC(c1ncc(OCCN2CCC3(CC2)C(=O)Nc2ccc(Cl)cc23)cn1)S(C)(=O)=O` (single isomer, unassigned) [Compound 2, 5-chloro-1′-[2-({2-[(1S) or (1R)-1-methanesulfonylethyl]pyrimidin-5-yl}oxy)ethyl]-1,2-dihydrospiro[indole-3,4′-piperidin]-2-one], for which the EC50 worked out at 10.7 nM.
In the case of `CC(c1ncc(OCCN2CCC3(CC2)C(=O)Nc2ccc(Cl)cc23)cn1)S(C)(=O)=O` (single isomer, unassigned) [Compound 3, 5-chloro-1′-[2-({2-[(1R) or (1S)-1-methanesulfonylethyl]pyrimidin-5-yl}oxy)ethyl]-1,2-dihydrospiro[indole-3,4′-piperidin]-2-one], the EC50 came out at 23.5 nM.
Compound `CC(O)c1ncc(OCCN2CCC3(CC2)C(=O)Nc2ccc(C#N)cc23)cc1C(F)(F)F` (single isomer, unassigned) [Compound 376, 1′-[2-({6-[(1S) or (1R)-1-hydroxyethyl]-5-(trifluoromethyl)pyridin-3-yl}oxy)ethyl]-2-oxo-1,2-dihydrospiro[indole-3,4′-piperidine]-5-carbonitrile] gave an EC50 of 6.21 nM. This EC50 is about 3.8-fold lower than that of the compound before.
As to `CC(O)c1ncc(OCCN2CCC3(CC2)C(=O)Nc2ccc(C#N)cc23)cc1C(F)(F)F` (single isomer, unassigned) [Compound 377, 1′-[2-({6-(1S) or (1R)-1-hydroxyethyl]-5-(trifluoromethyl)pyridin-3-yl}oxy)ethyl]-2-oxo-1,2-dihydrospiro[indole-3,4′-piperidine]-5-carbonitrile], the EC50 was 24.4 nM.
`CS(=O)(=O)C1(c2ccc(OCCN3CCC4(CC3)C(=O)Nc3ccc(Cl)cc34)cc2)CC(O)C1` (stereo not drawn) [Compound 269, 5-chloro-1′-(2-{4-[(cis) or (trans)-3-hydroxy-1-methanesulfonylcyclobutyl]phenoxy}ethyl)-1,2-dihydrospiro[indole-3,4′-piperidin]-2-one] had a concentration giving a half-maximal response (EC50) of 30.4 nM.
`CS(=O)(=O)C1(c2ccc(OCCN3CCC4(CC3)C(=O)Nc3ccc(Cl)cc34)cc2)CC(O)C1` (stereo not drawn) [Compound 270, 5-chloro-1′-(2-{4-[(trans) or (cis)-3-hydroxy-1-methanesulfonylcyclobutyl]phenoxy}ethyl)-1,2-dihydrospiro[indole-3,4′-piperidin]-2-one] registered an EC50 of 2.92 nM.
